Laboratory results: patent publication US5665745A, “Heterocyclic compounds and their preparation and use” (Eli Lilly and Company, priority 1995, dated 1997)
Like-named read-outs stand apart in the source and are kept apart here.

How the values were obtained:
[1] = biological target: muscarinic acetylcholine receptors; assay: inhibition of specific binding of ^3 H-Oxotremorine-M (^3 H-Oxo); set-up: species or system rat (male Wistar; details: ^3 H-Oxotremorine 1.0 nM, rat cortex, 30 min. at 25° C.
Excerpt: The pharmacological properties of the compounds of the invention can be illustrated by determining their capability to inhibit the specific binding of ^3 H-Oxotremorine-M (^3 H-Oxo). Birdsdall N. J. M., Hulme E. C., and Burgen A. S. V. (1980). "The Character of Muscarinic Receptors in Different Regions of the Rat Brain" Proc. Roy. Soc. London (Series B) 207,1.
^3 H-Oxo labels muscarinic receptor in the CNS (with a preference for agonist domains of the receptors). Three different sites are labeled by ^3 H-Oxo. […] Using the present experimental conditions only the high and medium affinity sites are determined.
The inhibitory effects of compounds on ^3 H-oxo binding reflects the affinity for muscarinic acetylcholine receptors.
(§1) All preparations are performed at 0°-4° C. unless otherwise indicated. Fresh cortex (0.1-1 g) from male Wistar rats (150-250 g) is homogenized for 5-10 seconds in 10 mL 20 nM Hepes pH: 7.4, with an Ultra-Turrax homogenizer. The homogenizer is rinsed with 10 mL of buffer and the combined suspension centrifuged for 15 min. at 40,000×g. The pellet is washed three times with buffer. In each step the pellet is homogenized as before in 2×10 mL of buffer and centrifuged for 10 min. at 40,000×g.
The final pellet is homogenized in 20 mM Hepes pH: 7.4 (100 mL per g of original tissue) and used for binding assay. Aliquots of 0.5 mL is added 25 μL of test solution and 25 μL of ^3 H-Oxotremorine (1.0 nM, final concentration) mixed and incubated for 30 min. at 25° C. Non-specific binding is determined in triplicate using arecoline ([…], final concentration) as the test substance. After incubation samples are added 5 mL of ice-cold buffer and poured directly onto Whatman GF/C glass fiber filters under suction and immediately washed 2 times with 5 mL of ice-cold buffer. The amount of radioactivity on the filters are determined by conventional liquid scintillation counting. Specific binding is total binding minus non specific binding.
Test substances are dissolved in 10 mL water (if necessary heated on a steam-bath for less than 5 min.) at a concentration of 2.2 mg/mL. […] The test value will be given as IC50 (the concentration (nM) of the test substance which inhibits the specific binding of ^3 H-oxo by 50%). IC50 =(applied test substance concentration) x(Cx /Co -Cx)nM where Co is specific binding in control assays and Cx is the specific binding in the test assay. (The calculations assume normal mass-action kinetics).

[2] = biological target: T1, muscarinic receptors (M1 -site, pirenzepine sensitive site) (Rattus norvegicus, UniProt P08482); assay: inhibition of ^3 HPRZ (pirenzepine, [N-methyl-^3 H]) binding to rat cerebral cortex membranes; set-up: species or system rat (male Wistar
T1 construct: from tissue; host or cells: cerebral cortex membranes of male Wistar rats
T1 sequence (P08482 1-460): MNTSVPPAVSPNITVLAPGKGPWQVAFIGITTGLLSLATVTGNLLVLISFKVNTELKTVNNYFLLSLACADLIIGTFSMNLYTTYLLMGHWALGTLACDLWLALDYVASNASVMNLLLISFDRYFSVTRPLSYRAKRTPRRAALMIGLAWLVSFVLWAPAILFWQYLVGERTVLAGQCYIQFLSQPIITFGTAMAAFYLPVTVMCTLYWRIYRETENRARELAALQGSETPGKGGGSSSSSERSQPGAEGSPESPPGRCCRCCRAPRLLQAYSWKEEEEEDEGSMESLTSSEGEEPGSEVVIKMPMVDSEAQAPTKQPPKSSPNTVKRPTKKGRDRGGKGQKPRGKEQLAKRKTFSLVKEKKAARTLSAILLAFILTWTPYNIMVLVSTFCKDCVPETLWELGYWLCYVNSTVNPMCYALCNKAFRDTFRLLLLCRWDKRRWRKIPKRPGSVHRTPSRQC
Experimental: Furthermore the pharmacological properties of the compounds of the invention can also be illustrated by determining their capability to inhibit ^3 HPRZ (pirenzepine, [N-methyl-^3 H]) binding to rat cerebral cortex membranes.
Pirenzepine binds selectively to subtype of muscarinic receptors. Historically the type is named the M1 -site, whereas pirenzepine sensitive site would be more appropriate.
as §1, with “cortex ([…])” for “cortex (0.1-1 g)”, “rats (150-200” for “rats (150-250”, “5-10 s” for “5-10 seconds”, “20 mM” for “20 nM”, “with 2×10” for “with 10”, “in 3×10” for “in 2×10”
The final pellet is homogenized in 20 mM Hepes pH: 7.4 (100 mL per g of original tissue) and used for binding assay. Aliquots of 0.5 mL is added 20 μl of test solution and 25 μL of ^3 HPRZ (1.0 nM, final conc.), mixed and incubated for 60 min. at 20° C. Non-specific binding is determined in triplicate using atropine (1 ,μg/mL, final conc.) as the test substance. After incubation samples are added 5 mL of ice-cold buffer and poured directly onto Whatman GF/C glass fiber filters under suction and immediately washed 2 times with 5 mL of ice-cold buffer. The amount of radioactivity on the filters are determined by conventional liquid scintillation counting. Specific binding is total binding minus non-specific binding.
Test substances are dissolved in 10 mL water, at a concentration of 0.22 mg/mL.
The test value will be given as IC50 (the concentration (nM) of the test substance which inhibits the specific binding of ^3 HPRZ by 50%). IC50 =(applied test substance concentration) x(Cx /Co -Cx)nM where Co is specific binding in control assays and Cx is the specific binding in the test assay. (The calculations assume normal mass-action kinetics).

[3] = ^3 HPRZ 1.0 nM, rat cortex, 60 min. at 20° C., read-out: ^3 HPRZ IC50 (head from b208 on: Pir IC-50)

| IC50 [2, 3] [nM] | SMILES | IC50 [1] [nM] | IC50 [2] [nM] |
| --- | --- | --- | --- |
|  | CCCCCCc1nsnc1OC1CN2CCC1CC2 (racemic) [Compound 101, (±)-3-Hexyl-4-(1-azabicyclo[2.2.2]octyl-3-oxy)-1,2,5-thiadiazole] | 88 | 36 |
|  | Cl/C=C/COc1nsnc1OC1CN2CCC1CC2 (mixture of isomers) [Compound 120, (±)-3-(trans-3-chloro-2-propenyloxy)-4-(1-azabicyclo[2.2.2]octyl-3-oxy)-1,2,5-thiadiazole] | 11 | 71 |
| 10 | COc1ccc(CCCOc2nsnc2O[C@@H]2CN3CCC[C@H]2C3)cc1 (relative stereo) [Compound 193, (±)-endo-3-[3-(4-Methoxyphenyl)propoxy]-4-(1-azabicyclo[3.2.1]octyl-6-oxy)-1,2,5-thiadiazole] | 3.7 |  |
| 21 | CCCCc1ccc(COc2nsnc2O[C@@H]2CN3CCC[C@H]2C3)cc1 (relative stereo) [Compound 192, (±)-endo-3-(4-n-Butylbenzyloxy)-4-(1-azabicyclo[3.2.1]octyl-6-oxy)-1,2,5-thiadiazole] | 13 |  |
|  | CC#CCOc1nsnc1OC1CN2CCC1CC2 (racemic) [Compound 105, (±)-3-(2-butynyloxy)-4-(1-azabicyclo[2.2.2]octyl-3-oxy)-1,2,5-thiadiazole] | 7.9 | 65.6 |
| 20 | CCCCSc1nsnc1OC1CCCN(C)C1 (racemic) [Compound 29, (±)-3-Butylthio-4-(1-methyl-3-piperidyloxy)-1,2,5-thiadiazole] | 34 |  |
|  | CC(C)(C)CCSc1nsnc1OC1CN2CCC1CC2 (racemic) [Compound 18, (±)-3-(3,3-Dimethylbutylthio)-4-(1-azabicyclo[2.2.2]-octyl-3-oxy)-1,2,5-thiadiazole] | 101 | 73 |
|  | C=CCCCOc1nsnc1OC1CN2CCC1CC2 (racemic) [Compound 122, (±)-3-(4-pentenyloxy)-4-(1-azabicyclo[2.2.2]octyl-3-oxy)-1,2,5-thiadiazole] | 11 | 45 |
|  | c1ccc(CCSc2nsnc2OC2CN3CCC2CC3)cc1 (racemic) [Compound 43, (±)-3-(2-Phenylethylthio)-4-(1-azabicyclo[2.2.2]octyl-3-oxy)-1,2,5-thiadiazole] | 29 | 33 |
| 2.5 | FC(F)(F)C(F)(F)COc1nsnc1O[C@@H]1CN2CCC[C@H]1C2 (relative stereo) [Compound 190, (±)-endo-3-(3,3,3,2,2,Pentafluoropropoxy)-4-(1-azabicyclo[3.2.1]octyl-6-oxy)-1,2,5-thiadiazole] | 3.9 |  |
| 10 | CSc1ccc(COc2nsnc2O[C@@H]2CN3CCC[C@H]2C3)cc1 (relative stereo) [Compound 172, (±)-endo-3-(4-Methylthiobenzyloxy)-4-(1-azabicyclo[3.2.1]octyl-6-oxy)-1,2,5-thiadiazole] | 5.2 |  |
|  | C(CC1CC1)Oc1nsnc1OC1CN2CCC1CC2 (racemic) [Compound 114, (±)-3-(2-Cyclopropylethoxy)-4-(1-azabicyclo[2.2.2]octyl-3-oxy)-1,2,5-thiadiazole] | 9.3 | 43 |
| 0.6 | c1ccc(OCCSc2nsnc2O[C@@H]2CN3CCC[C@H]2C3)cc1 (relative stereo) [Compound 156, (±)-endo-3-(2-Phenoxyethylthio)-4-(1-azabicyclo[3.2.1]octyl-6-oxy)-1,2,5-thiadiazole] | 1 |  |
|  | FC(F)(F)CCCSc1nsnc1OC1CN2CCC1CC2 (racemic) [Compound 154, (±)-3-(4,4,4-trifluorobutylthio)-4-(1-azabicyclo[2.2.2]octyl-3-oxy)-1,2,5-thiadiazole] | 11 | 6.3 |
|  | CCCCCOc1nsnc1OC1CN2CCC1CC2 (racemic) [Compound 9, (±)-3-Pentyloxy-4-(1-azabicyclo[2.2.2]octyl-3-oxy)-1,2,5-thiadiazole] | 11 | 25 |
| > 1000 | CCCCOc1nsnc1O[C@@H]1CCC[C@@H]1N [Compound 135, 3-Butyloxy-4-(cis-1R-2-aminocyclopentanoxy)-1,2,5-thiadiazole] | > 1000 |  |
| 637 | CCCCSc1nsnc1O[C@@H]1CCC[C@H]1N(C)C (racemic) [Compound 143, (±)-trans-3-Butylthio-4-(2-dimethylaminocyclopentyloxy)-1,2,5-thiadiazole] | 1400 |  |
| 43 | FC(F)(F)c1cccc(CCOc2nsnc2O[C@@H]2CN3CCC[C@H]2C3)c1 (relative stereo) [Compound 188, (±)-endo-3-[2-(3-Trifluoromethylphenyl)ethoxy]-4-(1-azabicyclo[3.2.1]octyl-6-oxy)-1,2,5-thiadiazole] | 12 |  |
| 45 | CCCCOc1nsnc1OC[C@@H]1CCCN1 [Compound 32, (S)-3-Butyloxy-4-(2-pyrrolidinylmethyloxy)-1,2,5-thiadiazole] | 77 |  |
|  | ClCCCOc1nsnc1OC1CN2CCC1CC2 (racemic) [Compound 116, (±)-3-(3-Chloropropoxy)-4-(1-azabicyclo[2.2.2]octyl-3-oxy)-1,2,5-thiadiazole] | 14 | 33 |

| SMILES | IC50 [2, 3] [nM] | IC50 [1] [nM] | IC50 [2] [nM] |
| --- | --- | --- | --- |
| Fc1ccc(OC(CCSc2nsnc2OC2CN3CCC2CC3)c2ccc(F)cc2)cc1 (racemic) [Compound 152, (±)-3-(3-[4-fluorophenyl]-3-[4-fluorophenoxy]propylthio)-4-(1-azabicyclo[2.2.2]octyl-3-oxy)-1,2,5-thiadiazole] | 243 | 436 |  |
| FC(F)(F)c1ccc(OC(CCSc2nsnc2OC2CN3CCC2CC3)c2ccccc2)cc1 (racemic) [Compound 153, (±)-3-(3-Phenyl-3-[4-trifluoromethylphenoxy]propylthio)-4-(1-azabicyclo[2.2.2]octyl-3-oxy)-1,2,5-thiadiazole] | 205 | 597 |  |
| FC(F)(F)CCCOc1nsnc1O[C@@H]1CN2CCC[C@H]1C2 (relative stereo) [Compound 167, (±)-endo-3-(4,4,4-Trifluorobutoxy)-4-(1-azabicyclo[3.2.1]octyl-6-oxy)-1,2,5-thiadiazole] | 2 | 2.8 |  |
